According to patent US20240034753A1, “THERAPEUTIC PEPTIDES” (COHBAR, INC., priority 2020, published 2024):
Square brackets hold non-standard residues; d marks the D form. Ends that are not written are not given here. Peptide text beside a SMILES is read from it. Nle = CCCC[C@H](N)C(=O)O

Legend:
[1] = test system: SH-SY5Y Neuroblastoma Cells; test: ATP levels (CellTiter-Glo); assay type: cell-based, human; details: peptide 10 μM, 18-20 hours, relative to 0.1% DMSO treated control
Description: The effect of the peptides on cellular metabolism can be assessed using an assay of ATP levels in cultured cells such as human neuroblastoma cells. Peptides were initially prepared as 10 mM stock in DMSO and used at a final concentration of 10 μM (0.1% DMSO). […] CellTiter-Glo® Assay kit was purchased from Promega. SH-SY5Y human bone marrow neuroblastoma cell line was purchased from American Type Culture Collection (Manassas, VA) and licensed from Memorial Sloan-Kettering Cancer Center (New York, NY). SH-SY5Y cells were grown in DMEM/F12 medium supplemented with 10% FBS with 100 IU/ml penicillin and 100 μg/ml streptomycin. Cultures were maintained at 37° C. in a humidified atmosphere of 5% CO2/95% air. SH-SY5Y cells were seeded at 30,000 cells per well on 96-well plates. […] ATP levels were determined using a CellTiter-Glo Assay kit (Promega) according to the manufacturer's instructions. Luminescence for each sample well on the plate was measured using a Cytation 3 plate reader (BioTek, Winooski, VT). Activity was calculated relative to 0.1% DMSO treated control. The relative standard deviation of the result for the 0.1% DMSO treated control was <5%.

[2] = test system: A172 Cells; test: PrestoBlue cell viability assay; assay type: cell-based; details: human, 10 μM
Description: The effect of the peptides on cell viability can be assessed in cultured cells using suitable assay of viability such as the PrestoBlue® assay (Thermo Fisher Scientific, Waltham, MA). Peptides were initially prepared as 10 mM stock in DMSO and tested at a final concentration of 10 μM (0.1% DMSO). […] PrestoBlue Assay Reagent was purchased from Thermo Fisher Scientific. A172 human brain glioblastoma cell line was purchased from American Type Culture Collection (Manassas, VA). A172 cells were grown in DMEM supplemented with 10% FBS with 100 IU/ml penicillin and 100 μg/ml streptomycin. Cultures were maintained at 37° C. in a humidified atmosphere of 5% CO2/95% air. A172 cells were seeded at 8,000 cells per well on 96-well plates. […] Cell viability was determined using a PrestoBlue Assay reagent […] according to the manufacturer's instructions. Absorption for each sample well on the plate was measured using a Cytation 3 plate reader at 560 nm and 590 nm (BioTek, Winooski, VT). Activity was calculated relative to 0.1% DMSO untreated control. Treatment with 0.1% DMSO alone was used as the cell viability activity control. The relative standard deviation of the DMSO control was <5%.

Row | Molecule | ATP Levels, % Control [1] [%] | PrestoBlue cell viability, Percent of Control Activity [2] [%]
1 | CC[C@H](C)[C@H](NC(=O)[C@H](CC(C)C)NC(=O)[C@H](CC(C)C)NC(=O)[C@@H](N)CCSC)C(=O)N[C@@H](CC(C)C)C(=O)N[C@H](C(=O)N[C@@H](CC(C)C)C(=O)N[C@H](C(=O)N[C@@H](CC(C)C)C(=O)N[C@H](C)C(=O)O)C(C)C)[C@@H](C)O [compound 3] (H-MLLILTLVL[dA]-OH; N-terminus and C-terminus assumed) | 104.8 | 96.5
2 | CC[C@H](C)[C@H](NC(=O)[C@H](CC(C)C)NC(=O)[C@H](C)NC(=O)[C@@H](N)CCSC)C(=O)N[C@@H](CC(C)C)C(=O)N[C@H](C(=O)N[C@@H](CC(C)C)C(=O)N[C@H](C(=O)N[C@@H](CC(C)C)C(=O)N[C@H](C)C(=O)O)C(C)C)[C@@H](C)O [compound 4] (H-MALILTLVL[dA]-OH; N-terminus and C-terminus assumed) | 102.2 | 99.7
3 | CC[C@H](C)[C@H](NC(=O)[C@H](CC(C)C)NC(=O)[C@H](C)NC(=O)[C@@H](N)CCSC)C(=O)N[C@@H](CC(=O)O)C(=O)N[C@H](C(=O)N[C@@H](CC(C)C)C(=O)N[C@H](C(=O)N[C@@H](CC(C)C)C(=O)N[C@H](C)C(=O)O)C(C)C)[C@@H](C)O [compound 5] (H-MALIDTLVL[dA]-OH; N-terminus and C-terminus assumed) | 97.1 | 97.0
4 | CC[C@H](C)[C@H](NC(=O)[C@@H](NC(=O)CNC(=O)[C@@H](C)NC(=O)[C@@H](N)CCSC)C(C)C)C(=O)N[C@@H](CCCNC(=N)N)C(=O)NCC(=O)N[C@H](C(=O)N[C@@H](CC(C)C)C(=O)N[C@H](C(=O)N[C@@H](CC(C)C)C(=O)O)C(C)C)C(C)C [compound 9] (H-M[dA]GVIRGVLVL-OH; N-terminus and C-terminus assumed) | 105.9 | 94.8
5 | CC[C@H](C)[C@H](NC(=O)[C@@H](NC(=O)CNC(=O)[C@@H](C)NC(=O)[C@@H](N)CCSC)C(C)C)C(=O)N[C@@H](CCCNC(=N)N)C(=O)N[C@@H](C)C(=O)N[C@H](C(=O)N[C@@H](CC(C)C)C(=O)N[C@H](C(=O)N[C@@H](CC(C)C)C(=O)O)C(C)C)C(C)C [compound 10] (H-M[dA]GVIRAVLVL-OH; N-terminus and C-terminus assumed) | 103.2 | 99.6
6 | CC[C@H](C)[C@H](NC(=O)[C@H](Cc1c[nH]c2ccccc12)NC(=O)[C@H](CCC(N)=O)NC(=O)[C@@H](N)CCCNC(=N)N)C(=O)N[C@@H](CC(C)C)C(=O)N[C@@H](Cc1c[nH]cn1)C(=O)N[C@@H](CC(N)=O)C(=O)N[C@H](C)C(=O)NCC(=O)N[C@@H](CCSC)C(=O)N[C@@H](CO)C(=O)N[C@@H](Cc1ccccc1)C(=O)N[C@@H](Cc1ccccc1)C(=O)N[C@@H](CS)C(=O)O [compound 14] (H-RQWILHN[dA]GMSFFC-OH; N-terminus and C-terminus assumed) | 98.4 | 97.5
7 | CSCC[C@H](NC(=O)CNC(=O)[C@@H](C)NC(=O)[C@H](CC(N)=O)NC(=O)[C@H](Cc1c[nH]cn1)NC(=O)[C@H](CC(C)C)NC(=O)[C@H](CCC(=O)O)NC(=O)[C@H](Cc1c[nH]c2ccccc12)NC(=O)[C@H](CCC(N)=O)NC(=O)[C@@H](N)CCCNC(=N)N)C(=O)N[C@@H](CO)C(=O)N[C@@H](C)C(=O)N[C@@H](Cc1ccccc1)C(=O)N[C@@H](CS)C(=O)O [compound 15] (H-RQWELHN[dA]GMSAFC-OH; N-terminus and C-terminus assumed) | 101.8 | 98.8
8 | CSCC[C@H](NC(=O)[C@H](CCCNC(=N)N)NC(=O)[C@H](CCCNC(=N)N)NC(=O)[C@@H](N)CCCNC(=N)N)C(=O)N[C@@H](Cc1ccccc1)C(=O)N[C@@H](CO)C(=O)N[C@@H](CS)C(=O)N[C@@H](Cc1ccc(O)cc1)C(=O)N[C@H](C)C(=O)N[C@@H](Cc1ccc(O)cc1)C(=O)O [compound 19] (H-RRRMFSCY[dA]Y-OH; N-terminus and C-terminus assumed) | 106.7 | 98.8
9 | CCCC[C@H](NC(=O)[C@H](CCCNC(=N)N)NC(=O)[C@H](CCCNC(=N)N)NC(=O)[C@@H](N)CCCNC(=N)N)C(=O)N[C@@H](Cc1ccccc1)C(=O)N[C@@H](CO)C(=O)N[C@@H](CS)C(=O)N[C@@H](Cc1ccc(O)cc1)C(=O)N[C@H](C)C(=O)N[C@@H](Cc1ccc(O)cc1)C(=O)O [compound 20] (H-RRR[Nle]FSCY[dA]Y-OH; N-terminus and C-terminus assumed) | 106.9 | 104.7
10 | CC[C@H](C)[C@H](NC(=O)[C@@H](NC(=O)[C@H](Cc1c[nH]cn1)NC(=O)[C@H](CCCNC(=N)N)NC(=O)[C@H](CC(=O)O)NC(=O)[C@H](Cc1ccc(O)cc1)NC(=O)[C@H](CC(C)C)NC(=O)[C@H](CC(C)C)NC(=O)[C@@H](NC(=O)[C@@H](N)Cc1c[nH]c2ccccc12)C(C)C)C(C)C)C(=O)NCC(=O)NCC(=O)N[C@@H](CO)C(=O)N[C@@H](CC(C)C)C(=O)N[C@@H](CS)C(=O)N[C@H](C(=O)N[C@H](C(=O)N[C@H](C(=O)N[C@@H](CCC(N)=O)C(=O)N[C@H](C(=O)N[C@@H](CCC(=O)O)C(=O)N[C@H](C)C(=O)N[C@@H](Cc1ccc(O)cc1)C(=O)O)C(C)C)C(C)C)C(C)C)C(C)C [compound 23] (H-WVLLYDRHVIGGSLCVVVQVE[dA]Y-OH; N-terminus and C-terminus assumed) | 105.9 | 97.1
11 | CC[C@H](C)[C@H](NC(=O)[C@@H](NC(=O)[C@H](Cc1c[nH]cn1)NC(=O)[C@H](CCCNC(=N)N)NC(=O)[C@H](CC(=O)O)NC(=O)[C@H](Cc1ccc(O)cc1)NC(=O)[C@H](CC(C)C)NC(=O)[C@H](CC(C)C)NC(=O)[C@@H](NC(=O)[C@@H](N)Cc1c[nH]c2ccccc12)C(C)C)C(C)C)C(=O)NCC(=O)NCC(=O)N[C@@H](CO)C(=O)N[C@@H](CC(C)C)C(=O)N[C@@H](CS)C(=O)N[C@H](C(=O)N[C@H](C(=O)N[C@H](C(=O)N[C@@H](CCC(N)=O)C(=O)N[C@H](C(=O)N[C@@H](CCC(=O)O)C(=O)N[C@H](C)C(=O)O)C(C)C)C(C)C)C(C)C)C(C)C [compound 24] (H-WVLLYDRHVIGGSLCVVVQVE[dA]-OH; N-terminus and C-terminus assumed) | 98.3 | 96.7
12 | CC[C@H](C)[C@H](NC(=O)[C@@H](NC(=O)[C@H](Cc1c[nH]cn1)NC(=O)[C@H](CCCNC(=N)N)NC(=O)[C@H](CC(=O)O)NC(=O)[C@H](Cc1ccc(O)cc1)NC(=O)[C@H](CC(C)C)NC(=O)[C@H](CC(C)C)NC(=O)[C@@H](NC(=O)[C@@H](N)Cc1c[nH]c2ccccc12)C(C)C)C(C)C)C(=O)NCC(=O)NCC(=O)N[C@@H](CO)C(=O)N[C@@H](CC(C)C)C(=O)N[C@@H](CS)C(=O)N[C@H](C(=O)N[C@@H](CCC(N)=O)C(=O)N[C@H](C(=O)N[C@@H](CCC(N)=O)C(=O)N[C@H](C(=O)N[C@@H](CCC(=O)O)C(=O)N[C@H](C)C(=O)O)C(C)C)C(C)C)C(C)C [compound 25] (H-WVLLYDRHVIGGSLCVQVQVE[dA]-OH; N-terminus and C-terminus assumed) | 106.9 | 96.5
13 | GWVLLYDRHVIGGSLCVVVQVEAY [compound 22] | 103.5 | 96.5
14 | MAGVIRGVLVL [compound 8] | 101.1 | 92.0
15 | MLLILTLVLL [compound 2] | 99.9 | 94.4
16 | MMAGVIRGVLVL [compound 7] | 103.9 | 86.2
17 | MRQWILHNGGMSFFC [compound 12] | 101.0 | 100.5
18 | MRRRMFSCYLY [compound 17] | 104.6 | 100.6
19 | RQWILHNGGMSFFC [compound 13] | 101.2 | 99.1
20 | RRRMFSCYLY [compound 18] | 108.6 | 100.9
